Values quoted from earlier work as cited in paper PMC6843445, “Pharmacokinetic Properties of Fluorescently Labelled Hydroxypropyl-Beta-Cyclodextrin” (Biomolecules, 2019).
Where two headings read alike, the source gives them in different places.

What was measured:
[1] = set-up: method as in ref [4] = [4]; PMID 16018907; doi:10.1016/j.fct.2005.03.007; 4. Gould S. Scott R.C. 2-Hydroxypropyl-beta-cyclodextrin (HP-b-CD): A toxicology review Food Chem. Toxicol. 2005 43 1451 1459 10.1016/j.fct.2005.03.007 16018907; conditions: rats, 4–7 days 225 mg/kg/day i.v.; ref [4]; cited from earlier work
[2] = set-up: method as in PMID 28803710; conditions: patients with NPC1, lumbar intrathecal; ref [2]; cited from earlier work
[3] = set-up: method as in ref [4],[27] = [4]; PMID 16018907; doi:10.1016/j.fct.2005.03.007; 4. Gould S. Scott R.C. 2-Hydroxypropyl-beta-cyclodextrin (HP-b-CD): A toxicology review Food Chem. Toxicol. 2005 43 1451 1459 10.1016/j.fct.2005.03.007 16018907 || [27]; 27. Committee for Human Medicinal Products (CHMP), European Medicines Agency Cyclodextrins Used as Excipients. EMA/CHMP/333892/2013 9 10 2017 Available online: http://www.ema.europa.eu/docs/en_GB/docu; conditions: rats; ref [4],[27]; cited from earlier work
[4] = set-up: method as in ref [4] = [4]; PMID 16018907; doi:10.1016/j.fct.2005.03.007; 4. Gould S. Scott R.C. 2-Hydroxypropyl-beta-cyclodextrin (HP-b-CD): A toxicology review Food Chem. Toxicol. 2005 43 1451 1459 10.1016/j.fct.2005.03.007 16018907; conditions: rats; ref [4]; cited from earlier work
[5] = set-up: method as in ref [4] = [4]; PMID 16018907; doi:10.1016/j.fct.2005.03.007; 4. Gould S. Scott R.C. 2-Hydroxypropyl-beta-cyclodextrin (HP-b-CD): A toxicology review Food Chem. Toxicol. 2005 43 1451 1459 10.1016/j.fct.2005.03.007 16018907; conditions: dogs; ref [4]; cited from earlier work
[6] = set-up: method as in PMID 23611577; conditions: pigs, 2 week 0.25–0.5 g/kg/infusion; ref [9]; cited from earlier work
[7] = set-up: method as in PMID 22552390; conditions: rats, subcutaneous long-term, daily dose of 200 mg/kg; ref [8]; cited from earlier work
Caco-2 cells = system: Caco-2 cells; set-up: method as in PMID 27317368, PMID 20434542; conditions: HPBCD with different DS; ref [6],[7]; cited from earlier work
[8] = set-up: method as in PMID 27317368, PMID 20434542; conditions: HPBCD with different DS; ref [6],[7]; cited from earlier work
[9] = set-up: method as in PMID 30521943; conditions: after 30 min; ref [21]; cited from earlier work

Compound	lung findings [1]	disease progression [2]	no observed adverse effect levels (NOAELs) [3]	organs with the highest HPBCD concentrations [4]	organs with the highest HPBCD concentrations [5]	lung findings [6]	bone effect [7]	cytotoxicity on Caco-2 cells (Caco-2 cells)	hemolytic activity [8]	activity in the lung compared to other organs [9]
CC(O)COC[C@H]1O[C@@H]2O[C@H]3[C@H](O)[C@@H](O)[C@@H](O[C@H]4[C@H](O)[C@@H](O)[C@@H](O[C@H]5[C@H](O)[C@@H](O)[C@@H](O[C@H]6[C@H](O)[C@@H](O)[C@@H](O[C@H]7[C@H](O)[C@@H](O)[C@@H](O[C@H]8[C@H](O)[C@@H](O)[C@@H](O[C@H]1[C@H](O)[C@H]2O)O[C@@H]8COCC(C)O)O[C@@H]7COCC(C)O)O[C@@H]6COCC(C)O)O[C@@H]5COCC(C)O)O[C@@H]4COCC(C)O)O[C@@H]3COCC(C)O (stereo partly drawn) [HPBCD, 2-Hydroxypropyl-beta-cyclodextrin]	foamy macrophage infiltration of the lung	slowed disease progression	50 mg/kg/day	kidneys and lung	kidneys and liver	inflammatory changes in the lung	caused bone loss	no toxicity	low hemolytic activity	
^68Ga-labeled NODAGA-hydroxypropyl-beta-cyclodextrin [^68Ga-NODAGA-HPBCD]										relatively higher
